Reference: PubChem BioAssay AID2060604 (Molecular Pharmacology Branch, DTP, NCI, 2025)
pIC50: −log10 of the molar value.

Tested on: 379773-124-R-J2-PDC complex spheroids, viability % test/control
Assay: Anticancer human tumor 379773-124-R-J2-PDC patient-derived endometrial carcinoma cell line growth inhibition [CLK]
Conditions: for pIC50: curve of first compound; for viability, T/C: stronger effect = lower value
Outline: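 Multi-cell-type spheroids combined patient-derived tumor cells with HUVEC endothelial cells and human mesenchymal stem cells. Paired agents were dosed in half-log steps down from about clinical Cmax, or from 10 microM where Cmax was unknown.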
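Note: compound exposure lasted seven days before the viability readout.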
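Throughout, for viability, T/C: 100% = DMSO vehicle control wells.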

SMILES: Cn1ncnc1[C@H]1c2n[nH]c(=O)c3cc(F)cc(c23)N[C@@H]1c1ccc(F)cc1 + CNC(=O)c1ccc(Nc2nc(OC3CCCC3)c3c(-c4ccc5nc(C)oc5c4)c[nH]c3n2)c(OC)c1
- pIC50 (second compound 0.0316 µM): 7.86
- pIC50 (second compound 0.1 µM): > 9.50
- pIC50 (second compound 0.316 µM): > 9.50
- pIC50 (second compound 1 µM): > 9.50
- pIC50 (second compound 3.16 µM): > 9.50
- pIC50 (second compound 10 µM): > 9.50
- viability, T/C (second compound 0.0316 µM, first compound 0.000316 µM): 71.4%
- viability, T/C (second compound 0.0316 µM, first compound 0.001 µM): 64.9%
- viability, T/C (second compound 0.0316 µM, first compound 0.00316 µM): 65.7%
- viability, T/C (second compound 0.0316 µM, first compound 0.01 µM): 56.2%
- viability, T/C (second compound 0.0316 µM, first compound 0.0316 µM): 34.6%
- viability, T/C (second compound 0.0316 µM, first compound 0.1 µM): 14.7%
- viability, T/C (second compound 0.1 µM, first compound 0.000316 µM): 41.1%
- viability, T/C (second compound 0.1 µM, first compound 0.001 µM): 35.1%
- viability, T/C (second compound 0.1 µM, first compound 0.00316 µM): 26.6%
- viability, T/C (second compound 0.1 µM, first compound 0.01 µM): 26.9%
- viability, T/C (second compound 0.1 µM, first compound 0.0316 µM): 17.6%
- viability, T/C (second compound 0.1 µM, first compound 0.1 µM): 13.1%
- viability, T/C (second compound 0.316 µM, first compound 0.000316 µM): 39%
- viability, T/C (second compound 0.316 µM, first compound 0.001 µM): 38.5%
- viability, T/C (second compound 0.316 µM, first compound 0.00316 µM): 32.1%
- viability, T/C (second compound 0.316 µM, first compound 0.01 µM): 27.2%
- viability, T/C (second compound 0.316 µM, first compound 0.0316 µM): 17.1%
- viability, T/C (second compound 0.316 µM, first compound 0.1 µM): 8.94%
- viability, T/C (second compound 1 µM, first compound 0.000316 µM): 39.4%
- viability, T/C (second compound 1 µM, first compound 0.001 µM): 30.3%
- viability, T/C (second compound 1 µM, first compound 0.00316 µM): 27.8%
- viability, T/C (second compound 1 µM, first compound 0.01 µM): 21.5%
- viability, T/C (second compound 1 µM, first compound 0.0316 µM): 14%
- viability, T/C (second compound 1 µM, first compound 0.1 µM): 7.18%
- viability, T/C (second compound 3.16 µM, first compound 0.000316 µM): 35.4%
- viability, T/C (second compound 3.16 µM, first compound 0.001 µM): 31.1%
- viability, T/C (second compound 3.16 µM, first compound 0.00316 µM): 24.1%
- viability, T/C (second compound 3.16 µM, first compound 0.01 µM): 25.2%
- viability, T/C (second compound 3.16 µM, first compound 0.0316 µM): 16.6%
- viability, T/C (second compound 3.16 µM, first compound 0.1 µM): 10.1%
- viability, T/C (second compound 10 µM, first compound 0.000316 µM): 25.4%
- viability, T/C (second compound 10 µM, first compound 0.001 µM): 30.7%
- viability, T/C (second compound 10 µM, first compound 0.00316 µM): 23.5%
- viability, T/C (second compound 10 µM, first compound 0.01 µM): 19.1%
- viability, T/C (second compound 10 µM, first compound 0.0316 µM): 15.1%
- viability, T/C (second compound 10 µM, first compound 0.1 µM): 9.79%
